This note sets out measurements from US20120201935A1, “SWEETNESS ENHANCER, SWEETENER COMPOSITIONS, METHODS OF MAKING THE SAME AND CONSUMABLES CONTAINING THE SAME” (NUTRINOVA NUTRITION SPECIALTIES & FOOD INGREDIENTS GMBH, priority 2011, published 2012).

Molecules are shown by their SMILES. “Also recorded” adds a separate entry of the source.

For assay [1], the system named is HEKα15#17 cells (control cell line without sweet receptor). The assay can be described thus: Same calcium assay on the control cell line without sweet receptor. It counts as cell-based. The settings on record: FIG. 1 grey bars. On the procedure:
(§1) For measurement of human T1R2/T1R3 taste receptor dependent activity a control cell line without sweet receptor based on HEK 293 and a cell line expressing the sweet receptor hT1R2/hT1R3 based on HEK 293, respectively, are seeded into assay plates and labelled with the calcium sensitive fluorescence dye Fluo4-AM in a culture medium. The potential modulators, e.g. the test compound, are added to the control cell line and to the cell line expressing the sweet receptor hT1R2/hT1R3, respectively.
(§2) A stable cell line based on HEK293 was termed HEKα15#17 served as control for functional Gα-protein and a stable cell line HEKGα15#17R2R3b#8 C6 served as cell line expressing the sweet receptor hT1R2/hT1R3 based on HEKGα15#17.
The cells were cultured in DMEM/HG and 10% FCS Gold, 4 mM L-Glutamin, 1.3 mg/ml Geneticin (HEKGα15#17) or the same medium additionally containing 6 μg/ml Blasticidin (HEKGα15#17R2R3b#8 C6). The medium for the assay was DMEM/HG (high glucose, 4.5 g/l glucose, Life Technologies) and 10% FCS Gold, 4 mM L-Glutamin (HEKGα15#17) or DMEM/LG (low glucose, 1 g/l glucose; Life Technologies) and 10% FCS Gold (HEKGα15#17R2R3b#8C6), respectively. 1.3 Evaluation of the sweet receptor modulating activity of rosmarinic acid
In order to evaluate the sweet receptor modulating activity of rosmarinic acid, rosmarinic acid was added to the cultures in a concentration of 25 μM in a volume of 50 μl. Controls were KH-buffer (Krebs HEPES-buffer: 118 mM NaCl, 4.7 mM KCl, 1.2 mM MgSO4, 1.2 mM KH2PO4, 4.2 mM NaHCO3, 1.3 mM CaCl2, 10 mM Hepes, pH 7.4) either without or with sweetness enhancer.
Further controls for function of G-protein and receptor were isoproterenol Sigma Aldrich), ionomycin (1 μM, Calbiochem) and ATP (1 μM, Applichem).
For measurement of human T1R2/T1R3 taste receptor dependent activity, on day 1 of the test procedure the HEKα15#17 cells (control cell line without sweet receptor) and the HEKGα15#17R2R3b#8 C6 cells (cell line expressing the sweet receptor hT1R2/hT1R3), respectively, were transferred to low-glucose medium.
On day 2 the cells were seeded into assay plates at a density of 25.000 cells/well. Assay plates for fluorescence measurement (black clear bottom 96-cavity plates, Greiner Bio-One) were coated with poly-D-lysine. For direct comparison both cell lines (control cell line without sweet receptor and cell line expressing the sweet receptor hT1R2/hT1R3) were seeded into different cavities of the same assay plate. The plate was placed into the incubator for 48 hours at 37° C., 5% CO2, 100% relative humidity.
On day 4 the calcium assay was performed. For this assay, the cells were marked with Fluo4-AM in medium and KH-buffer. To each cavity 100 μl KH-Puffer/250 μM sulfinpyrazone/4 μM Fluo4-AM were added gently to 100 μl medium (final concentration of Fluo4-AM=2 μM, stock solution of Fluo4-AM 1 mM in DMSO, excitation at 485 nm, emission at 520 nm, Fisher Scientific, 58239 Schwerte, Germany).
The plate was placed into the incubator for 1 hour. In the mean time the test substances (“ligands”) were prepared in a separate plate (5 times concentrated, 150 μl/cavity, and then automatically 50 μl/cavity were transferred into the screening cell plate by pipetting robot (FLEX-station, Molecular Devices, Sunnyvale, Calif.).
The culture medium was carefully removed and 200 μl KH-buffer/250 μM sulfinpyrazone per cavity was added slowly. Cells were left in the FLEX-station for 20 minutes for adaptation, followed by measurement at 37° C.
In the bar diagram the grey bars (control—without hT1R2/hT1R3) indicate the measured Fluo4-AM fluorescence increase of the respective test compound added to the control cell line, the black bars (assay—with hT1R2/hT1R3) indicate the measured Fluo4-AM fluorescence increase of the respective test compound added to the cell line expressing the sweet receptor hT1R2/hT1R3.

Assay [2] in a line: Taste and spit assay with a panel of trained sensory evaluators. It counts as in vivo, human. The settings on record: 5 panelists. From the text:
The taste of a sample of a compound, e.g. rosmarinic acid, with regard to sweetness and/or sweetness enhancing properties, in other embodiments, may be assessed in vivo by using a panel of trained sensory evaluators experienced in the sweet taste estimation procedure, e.g. in the taste and spit assay as described e.g. in Example 2.
In these cases, panelists are asked to take a sample of the liquid to be assessed (test substance, e.g. rosmarinic acid) into the mouth and after some time allowed for taste perception to spit the sample out completely. Subsequently, the panelists are asked to rinse their mouth well with water or black tea to reduce any potential carry over effects. The tasting of a sample can be repeated if required.
In a first descriptive test (qualitative assessment for sweetness) the panelists are asked to taste the quality of single samples (maximum 3 subsequent samples). The individuals of the taste panel are asked to answer the following questions with regard to the quality of taste: 1) does the sample taste sweet?. 2) is there another taste detectable (bitter, sour, salty, umami)?. 3) is there an off- or aftertaste?. 4) is there anything else remarkable about the perception of the sample?
In the next step (assessment of sweetness enhancing, e.g. fructose enhancing, features) the panelists are asked to answer questions in a pairwise comparison test to determine the enhancement of sweet taste of the test substance with fructose relative to fructose only. Again the panelists are given samples. Two samples are prepared for direct comparison regarding sweetness. One sample contains fructose in a solvent and the other sample additionally contains the test substance. Designation of the samples with A and B is randomized and is decoded after the taste procedure. The questions to be answered are: 1) does one sample taste sweeter than the other?, 2) if so, which one?, 3) are there any other differences in the taste between the two samples? The result of the taste and spit assay is a qualitative evaluation of the differences between the two samples.
The taste of a sample of rosmarinic acid with regard to sweetness and fructose enhancing features was assessed by using a panel of trained sensory evaluators experienced in the sweet taste estimation procedure. 5 individuals were asked to taste the quality of single samples of 10 ml volume.
Panelists were asked to take a sample of the liquid to be assessed (20 μM test substance rosmarinic acid in 0.5% ethanol) into the mouth and after some time allowed for taste perception to spit the sample out completely. Subsequently, the panelists were asked to rinse their mouth well with water or black tea to reduce any potential carry over effects. The tasting of a sample could be repeated if required. […]

In assay [3] the target is T1, human taste receptor T1R2/T1R3 (Homo sapiens, UniProt Q7RTX0+Q8TE23).
T1 construct: expressed in transfected cells; host or cells: HEK293 stably expressing mouse G-alpha-15 (HEKGα15#17R2R3b#8 C6)
T1 sequence (Q8TE23 20-839): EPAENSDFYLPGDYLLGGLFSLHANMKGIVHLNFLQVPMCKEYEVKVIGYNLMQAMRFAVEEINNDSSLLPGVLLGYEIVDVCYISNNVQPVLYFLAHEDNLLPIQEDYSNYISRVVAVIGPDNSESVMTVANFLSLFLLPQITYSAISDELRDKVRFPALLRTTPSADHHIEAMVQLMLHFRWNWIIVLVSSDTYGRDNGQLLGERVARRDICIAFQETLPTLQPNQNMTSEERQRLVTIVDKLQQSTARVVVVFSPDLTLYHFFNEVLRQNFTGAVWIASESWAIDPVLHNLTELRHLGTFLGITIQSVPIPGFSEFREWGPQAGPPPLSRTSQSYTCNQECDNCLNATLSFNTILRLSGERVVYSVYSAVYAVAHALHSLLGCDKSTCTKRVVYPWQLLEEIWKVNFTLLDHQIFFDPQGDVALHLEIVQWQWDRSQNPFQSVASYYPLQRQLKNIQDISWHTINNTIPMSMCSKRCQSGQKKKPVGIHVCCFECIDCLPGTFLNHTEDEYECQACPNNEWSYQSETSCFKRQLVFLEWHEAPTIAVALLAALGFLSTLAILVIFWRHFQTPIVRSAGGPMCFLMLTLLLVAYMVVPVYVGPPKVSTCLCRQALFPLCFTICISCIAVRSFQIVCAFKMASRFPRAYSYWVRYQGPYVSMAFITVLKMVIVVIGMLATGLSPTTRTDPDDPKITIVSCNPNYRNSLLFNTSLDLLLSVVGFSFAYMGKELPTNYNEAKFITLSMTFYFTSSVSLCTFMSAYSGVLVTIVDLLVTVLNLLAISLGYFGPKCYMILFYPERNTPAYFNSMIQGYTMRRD
T1 sequence (Q7RTX0 21-852): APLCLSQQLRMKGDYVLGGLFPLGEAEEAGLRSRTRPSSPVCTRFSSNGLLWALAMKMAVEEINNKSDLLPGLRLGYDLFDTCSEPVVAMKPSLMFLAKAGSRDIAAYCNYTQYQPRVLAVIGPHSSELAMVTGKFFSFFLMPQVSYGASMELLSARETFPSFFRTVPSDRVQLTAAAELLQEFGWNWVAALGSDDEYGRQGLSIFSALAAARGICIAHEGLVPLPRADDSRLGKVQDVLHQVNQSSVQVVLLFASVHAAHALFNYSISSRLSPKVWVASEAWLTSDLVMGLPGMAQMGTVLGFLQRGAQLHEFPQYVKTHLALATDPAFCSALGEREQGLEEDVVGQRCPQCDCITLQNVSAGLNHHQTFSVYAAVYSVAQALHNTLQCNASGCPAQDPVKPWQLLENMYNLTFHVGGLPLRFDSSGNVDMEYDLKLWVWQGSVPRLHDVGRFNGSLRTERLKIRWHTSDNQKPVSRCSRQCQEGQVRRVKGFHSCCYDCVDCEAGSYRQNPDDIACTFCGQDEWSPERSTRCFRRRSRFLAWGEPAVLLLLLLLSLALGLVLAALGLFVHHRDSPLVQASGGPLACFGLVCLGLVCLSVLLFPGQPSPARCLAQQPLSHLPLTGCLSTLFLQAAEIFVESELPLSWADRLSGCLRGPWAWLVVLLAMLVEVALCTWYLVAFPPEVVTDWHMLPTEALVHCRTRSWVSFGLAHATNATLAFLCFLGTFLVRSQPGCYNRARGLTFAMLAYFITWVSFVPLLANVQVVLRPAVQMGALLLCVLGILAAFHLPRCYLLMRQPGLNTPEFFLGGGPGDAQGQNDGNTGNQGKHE
The assay can be described thus: Recombinant human taste receptor T1R2/T1R3 dependent cell based calcium assay (Fluo4-AM), cell line expressing the sweet receptor. On the procedure: as §1, §2
The cells were cultured in DMEM/HG and 10% FCS Gold, 4 mM L-Glutamin, 1.3 mg/ml Geneticin (HEKGα15#17) or the same medium additionally containing 6 μg/ml Blasticidin (HEKGα15#17R2R3b#8 C6). The medium for the assay was DMEM/HG (high glucose, 4.5 g/l glucose, Life Technologies) and 10% FCS Gold, 4 mM L-Glutamin (HEKGα15#17) or DMEM/LG (low glucose, 1 g/l glucose; Life Technologies) and 10% FCS Gold (HEKGα15#17R2R3b#8C6), respectively. […]
On day 2 the cells were seeded into assay plates at a density of 25.000 cells/well. Assay plates for fluorescence measurement (black clear bottom 96-cavity plates, Greiner Bio-One) were coated with poly-D-lysine. […]

[4] abbreviates: test compound without added enhancer/fructose, sodium cyclamate 30 mM, ATP 1 μM, ionomycin 1 μM, fructose 20 mM, rosmarinic acid 25 μM.
[5] abbreviates: 20 μM with 4% fructose in 0.5% ethanol.

For `O=C(CO)[C@@H](O)[C@H](O)[C@H](O)CO` [fructose], in assay [1] (setting [4]), the “Fluo4-AM fluorescence increase (activation) of the control cell line” value (shortened to “Fluo4-AM fluorescence increase”) is reported as “does neither activate”.
On to `O=C(/C=C/c1ccc(O)c(O)c1)O[C@H](Cc1ccc(O)c(O)c1)C(=O)O` [rosmarinic acid], for which, in assay [1] (rosmarinic acid 25 μM in the presence of fructose (20 mM)), the “Fluo4-AM fluorescence increase” value was “does not activate”. Moreover, the “Fluo4-AM fluorescence increase” value in assay [1] (setting [4]) is on record as “does not activate”. Besides, the “Off-taste or other taste (Phase I qualitative assessment)” value in assay [2] (20 μM in 0.5% ethanol, 10 ml) was “No off-taste or any other taste than sweetness was detected”. In addition, the “Taste quality of the single sample (Phase I qualitative assessment)” value in assay [2] (20 μM in 0.5% ethanol, 10 ml, ambient temperature) is given as “no characteristic intrinsic taste”. In addition, in assay [2] (setting [5]), the “Panelists identifying the sample with 4% fructose plus test substance as sweeter than 4% fructose only (Phase II pairwise comparison)” value is “four” and the “Panelists tasting no difference between the two samples (Phase II pairwise comparison)” value is on record as “One”. Also, the “Time response in the cell assay” value in assay [3] (measured over ca. 1.5 minutes (86 seconds), FIG. 2) is “selective stimulation of receptor carrying cells”. For the same compound, in assay [3] (rosmarinic acid in the presence of fructose), the “Fructose enhancing activity in the cell based in vitro assay” value is listed as “acting as a fructose enhancer; also recorded: enhances the activity of fructose; also recorded: acts as a fructose enhancer”.
On to `O=S(=O)([O-])NC1CCCCC1.[Na+]` [sodium cyclamate], for which the “Fluo4-AM fluorescence increase” value in assay [1] (setting [4]) is on record as “does not activate”.
As to `C[C@H](CCC(=O)O)C[C@H](C)C[C@H](C)C(=O)/C=C(\O)[C@H](C)C[C@H](C)C/C=C/[C@@H](C)[C@@H](O)[C@@H](C)[C@@H](O)C[C@@H]1CC[C@@](C)([C@H]2CC[C@@](C)([C@@H](C)O)O2)O1` [ionomycin], in assay [1] (setting [4]), the “Fluo4-AM fluorescence increase” value was “activate”.
Same read-out and setting: for `Nc1ncnc2c1ncn2[C@@H]1O[C@H](COP(=O)(O)OP(=O)(O)OP(=O)(O)O)[C@@H](O)[C@H]1O` [ATP] the value was “activate”; for `CC(C)NCC(O)c1ccc(O)c(O)c1` (stereo not shown) [isoproterenol], “activate”.
